Experimental data taken from patent publication US20090286869A1, “Flavanols and B-Type Procyanidins and Inflammation” (Mars, Inc., priority 2005, published 2009).
“Also recorded” adds a separate entry of the source.

Legend:
COX-2 mRNA [1] = experiment: RT-PCR of COX-2 mRNA in LPS and fMLP-treated U937-derived macrophages; assay type: cell-based, human; settings: 10 μM each; for inhibition of the mRNA expression of COX-2: 2 h pretreatment before LPS 1 μg/ml priming or fMLP 10 μM stimulation, FIGS. 4 A-C; for order of suppression potency of the COX-2 mRNA expression induced by LPS and fMLP: FIG. 4C
Description: The human monocyte line U937 was obtained from the cell bank in Shanghai Institute of Biological Sciences, Chinese Academy of Sciences. Monocytic cells of 3-4 passages were grown to confluence in RPMI 1640 (GIBCO-BRL, Glasgow, Scotland) containing 10% fetal bovine serum at 37° C. in a 5% CO2 humidified incubator during all experimental procedures. Macrophages were pretreated with procyanidins B1 dimer, B2 dimer, A1 dimer, and flavanols (−)-catechin and (+)-epicatechin (each 10) for 2 h before LPS (1 μg·ml^−1) priming or fMLP (10 μM) stimulation for 2 h. The normal macrophages without LPS or fMLP treatment were considered as controls. They were then differentiated to macrophages in the medium containing 100 nM PMA and allowed to adhere for 48 h, after which they were fed with PMA-free medium and cultured for 24 h prior to use. Cells from different groups were collected and total RNA was prepared with TRI-REAGENT-LS extraction kit The expression of RNAs was determined by RT-PCR. Complementary DNA was created from RNA using TrueScript MMLV reverse transcriptase and oligo d (T) 18 primers. 5 μg RNA was included in each reaction.
The data are presented as means±SD and compared with ANOVA and least significant difference test using SPSS statistical program. The level of the statistical significance was set at P<0.05.

[2] = biological target: T1, recombinant human COX-2 enzyme (Homo sapiens, UniProt P35354); experiment: Determination of COX-2 enzyme activity (PGE2 RIA, baculovirus-expressed enzyme in sf9 cells); assay type: biochemical; settings: baculovirus-expressed human recombinant COX-2; 10 μmol/L arachidonic acid; FIG. 3
T1 construct: made in house; host or cells: sf9 insect cells infected with hCOX-2 recombinant baculovirus
T1 sequence (P35354 18-604): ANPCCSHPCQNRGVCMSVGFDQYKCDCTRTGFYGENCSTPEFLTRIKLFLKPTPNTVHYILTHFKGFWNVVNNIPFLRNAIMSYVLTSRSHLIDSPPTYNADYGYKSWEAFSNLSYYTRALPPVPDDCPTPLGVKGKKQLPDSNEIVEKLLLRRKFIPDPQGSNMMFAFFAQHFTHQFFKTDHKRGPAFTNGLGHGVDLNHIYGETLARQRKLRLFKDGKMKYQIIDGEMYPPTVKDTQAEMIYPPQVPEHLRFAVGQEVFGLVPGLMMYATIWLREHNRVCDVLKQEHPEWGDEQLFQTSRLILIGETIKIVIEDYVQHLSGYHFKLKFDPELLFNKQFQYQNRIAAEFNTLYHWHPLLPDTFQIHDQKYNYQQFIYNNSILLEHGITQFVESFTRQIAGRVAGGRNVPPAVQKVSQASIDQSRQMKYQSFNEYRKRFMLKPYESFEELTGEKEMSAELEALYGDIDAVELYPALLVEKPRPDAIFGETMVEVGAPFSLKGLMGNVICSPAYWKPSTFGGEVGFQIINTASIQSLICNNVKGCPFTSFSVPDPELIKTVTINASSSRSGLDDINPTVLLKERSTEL
Description: The effect of procyanidin dimer B2 and NS398, a selective COX-2 inhibitor (positive control), on the activity of COX-2 was measured using baculovirus-expressed recombinant human COX-2 enzyme as previously described (Zhang et al., Acta. Pharmacol. Sin. 25(8):1000-1006, 2004). Briefly, 24 h after infecting sf9 cells with hCOX-2 recombinant baculovirus, the cells were collected and washed in HHBS. The assays were performed as follows. One milliliter of Hank's solution containing 1×10^5 COX-2 expressing cells plus 9×10^5 uninfected sf9 cells was dispensed per well of 24-well polypropylene plates. B2, NS398, or DMSO vehicle (10 μL) was added to the appropriate well containing the cell suspension. Following a 15-min drug or DMSO preincubation at 37° C., the cells were challenged with 10 μmol/L arachidonic acid
(Sigma) in ethanol and incubated for 10 min. Reactions were terminated by the addition of 100 μL of 1 mol/L HCl, neutralized with 100 μL of 1 mol/L NaOH. The cells were pelleted for 10 min at 300×g and the levels of PGE2 in the supernatant were determined by a PGE2-specific RIA (Beijing East Asia Institute of Immunology). The concentration of PGE2 was then determined by interpolation from a standard curve and inhibition calculated by comparison of the PGE2 production by drug-treated cells (B2 and NS398) with that of DMSO-treated cells.

COX-2 protein expression = experiment: Western blot of LPS-induced COX-2 protein expression in THP-1 cells; assay type: cell-based, human; settings: 50 μM, 30 min pretreatment with B2 followed by 4 hour LPS treatment
Description: (§1) Human monocytic THP-1 cells from acute monocytic leukemia (American Type Culture Collection, Manassas, Va.) in RPMI 1640 medium (Life Technologies, Rockville, Md.), with 4.5 g/L glucose, 10 nM HEPES, 1 mM sodium pyruvate, and 50 μM 2-ME supplemented with 10% FBS, were cultured under a humidified 5% CO2 atmosphere at 37° C. For differentiation, THP-1 cells were plated at 1×10^6 cells/ml in the medium containing 100 nM PMA and allowed to adhere for 48 h, after which they were fed with PMA-free medium and cultured for 24 h prior to use. LPS was used at concentration of 1 μg/ml in the medium. sf9 cells were cultured in monolayer at 28° C. in Grace's supplemented medium with 10% heat-inactivated fetal bovine serum.
5×10^6 cells were resuspended in modified RIPA lysis buffer (Tris-HCl 50 mM, pH 7.4 NaCl 150 mM, EDTA 1 mM, Na-deoxycholate 0.25%, NP-40 1%, PMSF 1 mM, Na3VO4 1 mM, NaF 1 mM, Aprotinin 10 μg/ml, leupeptin 5 μg/ml, pepstatin 5 μg/ml), and lysed cells on ice for 45 min. The lysate was centrifuged at 14,000×g for 15 min to sediment the particulate materials. The protein concentration of the supernatant was measured by the method of Lowry (Lowry et al., J. Biol. Chem. 193:265-267, 1951). Samples were electrophoresed in SDS/PAGE gels and separated proteins were transferred onto a PVDF membrane. […]

COX-2 mRNA [3] = experiment: Real-time quantitative RT-PCR of COX-2 mRNA in LPS-treated differentiated THP-1 cells; assay type: cell-based, human; settings: differentiated THP-1 cells exposed to dimer B2 and LPS 1 μg/ml for 4 h; FIG. 1
Description: as §1
Total RNA was extracted from macropahges with TRIzol reagent (Invitrogen Corporation, Carlsbad, Calif.). Real-time quantitative RT-PCR was performed using the Opticon 2 (MJ Research Inc., Waltham, Mass.). Sequence specific PCR primers for COX-2 [accession no. NM_000963; forward primer: 5′-[…]-3′ [SEQ ID NO: 1]; reverse primer: 5′-[…]-3′ [SEQ ID NO: 2]] and GAPDH [accession no. NM_002046; forward primer: 5′-[…]-3′ [SEQ ID NO: 3]; reverse primer: 5′-[…]-3′ [SEQ ID NO: 4]] were designed using the Primer Premier software version 5.00. Standard curves were run on the same plate and the relative standard curve method was used to calculate the relative gene expression. […]

| Molecule | inhibition of the mRNA expression of COX-2 (COX-2 mRNA [1]) | order of suppression potency of the COX-2 mRNA expression induced by LPS and fMLP (COX-2 mRNA [1]) | effect on PGE2 synthesis (COX-2 enzyme activity) [2] | LPS-induced COX-2 protein expression (COX-2 protein expression; FIG. 2) | LPS-induced COX-2 protein expression (COX-2 protein expression; FIG. 2, listed as 132) | levels of mRNA for COX-2 (COX-2 transcription) (COX-2 mRNA [3]) |
| --- | --- | --- | --- | --- | --- | --- |
| Oc1cc(O)c2c(c1)O[C@H](c1ccc(O)c(O)c1)[C@H](O)[C@H]2c1c(O)cc(O)c2c1O[C@H](c1ccc(O)c(O)c1)[C@H](O)C2 [B2, (−)-epicatechin-(4β-8)-(−)-epicatechin] | significant inhibition | (−)-catechin, (+)-epicatechin >B1, B2>A1 | not inhibited; also recorded: no inhibitory effect | inhibited | inhibitory effect | inhibitory effect; also recorded: reduced in a concentration-dependent manner |
| Oc1cc(O)c2c(c1)O[C@@H](c1ccc(O)c(O)c1)[C@@H](O)C2 [(+)-epicatechin] | significant inhibition | (−)-catechin, (+)-epicatechin >B1, B2>A1 | – | – | – | – |
| Oc1cc(O)c2c(c1)O[C@H](c1ccc(O)c(O)c1)[C@H](O)[C@H]2c1c(O)cc(O)c2c1O[C@H](c1ccc(O)c(O)c1)[C@@H](O)C2 [B1, (−)-epicatechin-(4β-8)-(+)-catechin] | significant inhibition | (−)-catechin, (+)-epicatechin >B1, B2>A1 | – | – | – | – |
| Oc1cc(O)c2c(c1)OC1(c3ccc(O)c(O)c3)Oc3cc(O)c4c(c3C2C1O)OC(c1ccc(O)c(O)c1)C(O)C4 (centres unmarked) [A1, reference compound] | significant inhibition | (−)-catechin, (+)-epicatechin >B1, B2>A1 | – | – | – | – |
| (−)-catechin | significant inhibition | (−)-catechin, (+)-epicatechin >B1, B2>A1 | – | – | – | – |
